The test system of data set [1] is C. elegans. Description: Growth and development (growth and toxicity) assay. The data set is classed as in vivo. An excerpt: C. elegans was used in this study because it has advantages including having all the physiological properties of an animal, the ability to replicate human diseases, and a fast life cycle. The body of C. elegans is encased in a selectively permeable cuticle that only permits some compounds to be absorbed efficiently through the skin, so the most reliable mechanism for delivering compounds to the worms is through ingestion. Water-soluble compounds permeate the media and food and are readily taken up by the worms.
(§1) Making culturing plates with ergothioneine: C. elegans is usually grown in the laboratory using E. coli as a food source. Nematode Growth Medium (NGM) plates have been prepared by aseptically pouring NGM agar into petri plates. Ergothioneine was dissolved in water to make a working solution of 0.5 M and then mixed with E. coli liquid culture before seeding on NGM agar plates. The seeding spots were dried slowly, allowing ergothioneine to diffuse into the food bacteria and the agar for at least 24 hours before worms are introduced. The indicated ergothioneine dosages (0, 640 nM, 3.2 μM, 16 μM, 80 μM, 400 μM, 2 mM, and 10 mM) are based on the total volume of the plates.
High-resolution imaging and automated detection were used to precisely measure the growth rate of C. elegans worms from hatching to the first day of adulthood (total of 4 days). The C. elegans growth and development assay is highly sensitive and widely used in toxicology studies. Performing this test over a range of doses helps to identify a set of doses that have a physiological impact and exclude dose ranges that are likely too toxic to benefit lifespan.

Data set [2] relates to C. elegans. The experiment in a line: Acute toxicity assay. The format is in vivo. The protocol: as §1
The acute toxicity assay tests toxicity in adult worms by simulating the actual conditions of the lifespan assay. […] Second, over time worm deaths are scored to rule out doses that will likely have a negative impact on lifespan despite lacking immediate toxicity. […] Adult worms were monitored in the days immediately following exposure for early lethality or any other obvious defects.
Worms were treated with either vehicle control or ergothioneine at doses spanning a range from […] to 10 mM on media identical to what would be used in the lifespan experiment. […] Worms were examined for immediate toxic effects and then scored intermittently for survival until the start of lifespan experiment in the next step (see example 2 below). […]

Data on one compound can be found in patent US12485110B2, “Use of ergothioneine for extending lifespan or improving healthspan” (NANJING NUTRABUILDING BIO-TECH CO., LTD., priority 2022, dated 2025).

For `C[N+](C)(C)[C@@H](Cc1c[nH]c(=S)[nH]1)C(=O)[O-]` [Ergo, Ergothioneine], in the data set with C. elegans [1] (16 μM and 400 μM, L4 and day 1 adult), the “Number and size of worms (FIG. 1)” value is “comparable number and size”. Further, the “Number of worms (FIG. 1)” value in the data set with C. elegans [1] (10 mM, L4 and day 1 adult stages) is “less worms”. The “Size of young adults (FIG. 2)” value with C. elegans [1] (10 mM, day 1 adult stage) is listed as “smaller than normal”. The “Growth rate (worm size, FIG. 2)” value is given as “largely unaffected” in the data set on C. elegans [1] (concentrations up to 2 mM, day 1 adult stage) and “largely unaffected” in the data set on C. elegans [1] (concentrations up to 10 mM, L4 stage). For the same compound, the “Early lethality (FIG. 3)” value with C. elegans [2] (2 mM, upper end of the remaining doses) was “did not cause early lethality”; in the data set on C. elegans [2] (10 mM, day 10 post treatment, L4 stage worms, 25° C.), “showed an early lethality”.
